≈ marks a conversion by molar mass, not a printed value. Each block holds one compound with its values, some of them ahead of it.
Experiments:
[1] = Pharmacokinetics of the compounds in mice; assay type: in vivo, BALB/c mice
Source text: Animals: male BALB/c mice, SPF grade, purchased from Changzhou Cavens Experimental Animal Co., Ltd.; 16-24 g, license number: SCXK (Su)2016-0010; 2 to 3 days of adaptation period were given before the experiment.
Instruments: API 4500 High Performance Liquid Chromatograph Coupled Triple Quadrupole Mass Spectrometer, and Analyst QS A01.01 Chromatography Workstation were both purchased from AB SCIEX of the United States; Milli-Q ultrapure water device was purchased from Millipore; CF16R XII desktop high-speed refrigerated centrifuge was purchased From Hitachi Company; Qilinbeier Vortex-5 oscillator was purchased from IKA Company of German; electric heating constant-temperature water bath was purchased from Changzhou Guohua Electric Appliance Co., Ltd.; electric pipette was purchased from Thermo Company of American; and microanalysis balance was purchased from Shanghai Mettler Co., Ltd.
2 mg of the test compound was weighed, added to physiological saline, vortexed for 2 min, and ultrasonicated for 3 min, to prepare a test solution with a concentration of 0.2 mg/mL for intravenous administration.
A single dose of 2 mg/kg of the test compound was administered to BALB/c mice via the tail vein, the dose volume being 0.1 mL/10 g. At 5 min, 15 min, 30 min, 1 h, 2 h, 4 h after administration, blood samples were collected from the orbital venous plexus into heparinized EP tubes (0.6 mL), which were temporarily placed on crushed ice.
The samples were centrifuged at 8000 rpm for 5 min. 15 μL of upper plasma were transferred to a 96-well plate. 150 μL of methanol:acetonitrile (v/v=1:1) (containing 20 ng/mL tolbutamide) was added to 15 μL of plasma, shaken for 3 min, and centrifuged at 4500 rpm for 5 min. 100 μL of supernatant was taken to a 2 mL deep well plate. 100 μL of diluent (pure water) was added. The samples were shaken for 3 min, and centrifuged at 4500 rpm for 5 min. 180 μL of the supernatant was transferred to the sample plate. The content of the compound in the supernatant sample was analyzed by LC-MS/MS, and various pharmacokinetic parameters were calculated with WinNonlin software.

Acinetobacter baumannii = test: In vitro antibacterial activity, minimum inhibitory concentration (MIC); assay type: cell-based
Description: (§1) Compounds: The compounds prepared in the above examples and comparative examples. All test compounds were dissolved and diluted with DMSO, and the final concentrations were prepared as 64, 32, 16, 8, 4, 2, 1, 0.5, 0.25, 0.125, 0.0625 μg/mL in the experiment.
(§2) Bacterial strains: 6 strains of Acinetobacter baumannii (codenames: HDBAB-YK4, HDBAB-YK7, HDBAB-YK12, HDBAB-YK16, HDBAB_OXA_7, ATCC 19606), 2 strains of Pseudomonas aeruginosa (codenames: HDBPA-YK9, HDBPA)-YK15), 1 strain of Escherichia coli (codename: CLB30048), all provided by HD Biosciences (Shanghai) Co., Ltd.
(§3) Medium: Trypticase soy agar (TSA) (BD BBL 211043), and Cation-adjusted Mueller Hinton broth (CAMHB) (BD BBL212322).
(§4) The bacteria used for the minimum inhibitory concentration (MIC) test were stored frozen at −80° C., and needed 2 days to recover before use. A small amount of frozen bacteria was scraped with a sterile inoculation loop for streak inoculation on a TSA solid medium petri dish. The dish was placed in an ordinary incubator at 35±2° C. for 20-24 hours. 5-10 Colonies with similar morphologies were picked from the above-mentioned petri dish with a sterile inoculating loop for streak inoculation again on a TSA solid medium petri dish. The dish was then placed in an ordinary incubator at 35±2° C. for 20-24 hours.
(§5) 1.02×CAMHB liquid medium was taken out from a 4° C. refrigerator and placed at room temperature for preheating. 5-10 Individual bacterial colonies were picked from the solid petri dish of the above Section 2.1 and re-suspended in 500 μL of 0.9% NaCl, and then the OD600 was adjusted to 0.1-0.15 with a spectrophotometer. Then the bacteria were diluted 400 times with 1.02×CAMHB (two-step dilution method: firstly diluting 10 times, then diluting 40 times).
(§6) The number of inoculated bacteria can be obtained by counting the colonies on the petri dish (see Section 2.4).
(§7) One compound was arranged in each row of a 96-well test plate: the highest test concentration for each compound was 64 μg/mL, which was diluted by a factor of two.
(§8) Growth control (GC): 1.02×CAMHB and dimethyl sulfoxide (DMSO) containing bacterial inoculum, no compound.
(§9) Sterile control (SC): Containing 1.02×CAMHB and DMSO, no compound.
(§10) All test compounds were dissolved and diluted with DMSO. 50 μL of 3.2 mg/mL of each test compound was transferred to the initial well (A1-H1) of the dilution plate, and then 25 μL of DMSO was transferred to other wells. The test compounds were sequentially diluted by a factor of 2 from column 1 to column 11 (i.e. drawing 25 μL of test compound from column 1 to column 2 and mixing well, and then drawing 25 μL of test compound from column 2 to column 3 and mixing well, and then drawing 25 μL of test compound from column 3 to column 4 and mixing well, and so on, until diluting to column 11).
(§11) 2 μL of the compound was transferred from the compound plate to the corresponding well of the test plate. Meanwhile, 2 μL of 100% DMSO was transferred to the compound-free wells (the GC and SC wells).
(§12) 98 μL of the corresponding bacterial inoculum was added to the test plate (except for the SC well).
(§13) 98 μL of 1.02×CAMHB medium was added to the SC well of the test plate.
(§14) After the system was added, the test plate was covered with a sterile lid, centrifuged at 800 rpm for 30 seconds, then shaken on a plate shaker at 400 rpm for 1 minute for mixing well, and then placed in an incubator at 35±2° C. for 20 hours.
(§15) The inoculated bacteria were gradient diluted by 10 folds with the liquid medium, from 10^−1 to 10^−3. 100 μL of the above bacterial dilution was spread evenly on a TSA petri dish, 2 replicates for each dilution. After the medium was absorbed by TSA for 10 minutes, the petri dishes were reversed and incubated in an incubator at 35±2° C. for 24 hours.
(§16) A compound management system was turned on to check whether the barcode and compound arrangement of each test plate were correct. […]

Escherichia coli = test: as above; assay type: cell-based; conditions: strain CLB30048, read-out: MIC
Description: as §1, §2, §3, §4, §5, §6, §7, §8, §9, §10, §11, §12, §13, §14, §15, §16

Pseudomonas aeruginosa = test: as above; assay type: cell-based
Description: as §1, §2, §3, §4, §5, §6, §7, §8, §9, §10, §11, §12, §13, §14, §15, §16

[2] = system: Acinetobacter baumannii, Pseudomonas aeruginosa, and Escherichia coli; test: In vitro antibacterial activity, summary statements over all strains of Experimental Example 1; assay type: cell-based; conditions: method of Experimental Example 1
Description: as §1, §2
The minimum inhibitory concentration (MIC) of each compound was recorded according to the guidelines of the Clinical and Laboratory Standards Institute.

[3] = system: clinically isolated Klebsiella pneumoniae; test: MIC experiment of clinically sourced bacterial strains; assay type: cell-based; conditions: Klebsiella pneumoniae
Description: (§17) Compounds: the compound of Example 1 and Compound C of Comparative Example 3. Both test compounds were dissolved and diluted with DMSO, and the final concentrations were prepared as 64, 32, 16, 8, 4, 2, 1, 0.5, 0.25, 0.125, 0.0625 μg/mL in the experiment.
(§18) Bacterial strains: clinically isolated Acinetobacter baumannii, Pseudomonas aeruginosa, Klebsiella pneumoniae and Escherichia coli, all provided by HD Biosciences (Shanghai) Co., Ltd.
as §3
(§19) The experimental method was the same as that in the above Experimental Example 1.

[4] = system: clinically isolated Pseudomonas aeruginosa; test: as above; assay type: cell-based
Description: as §17, §18, §3, §19

[5] = system: clinically isolated Acinetobacter baumannii; test: as above; assay type: cell-based; conditions: for MIC: Acinetobacter baumannii
Description: as §17, §18, §3, §19

[6] = system: clinically isolated Escherichia coli; test: as above; assay type: cell-based
Description: as §17, §18, §3, §19

[7] = system: drug-resistant Acinetobacter baumannii; test: MIC in combination with Relebactam; assay type: cell-based
Source text: In addition, the inventors of the present invention also tested the inhibitory activities of the compound of Example 1 and Compound C, respectively, in combination with Relebactam on drug-resistant Acinetobacter baumannii (the experimental method was the same as that in Experimental Example 1).

[8] = mouse, male BALB/c mice, single intravenous dose 2 mg/kg, plasma

Compound: CC(CN)Nc1ccc(-c2ccc(OC[C@H](O/N=C(\C(=O)N[C@@H]3C(=O)N(OS(=O)(=O)[O-])C3(C)C)c3csc(N)n3)C(=O)O)cc2)c[n+]1C (stereo partly shown) [Compound A, reference compound]
- Vd ([1]; male, BALB/c, mouse, plasma, iv, 2 mg/kg, male BALB/c mice, single intravenous dose 2 mg/kg, plasma, read-out: VSS): 0.4 L/kg
- AUC(0-inf) [1, 8]: 2800 ng·h/mL
- AUC(0-t) [1, 8]: 2140 ng·h/mL
- C0 [1, 8]: 5920 ng/mL
- clearance [1, 8]: 265 mL/min/kg
- half-life [1, 8]: 18 min
- MIC (Acinetobacter baumannii; strain HDBAB-YK4): 16 µg/mL (≈ 22.6 µM)
- MIC (Acinetobacter baumannii; strain HDBAB-YK7): 8 µg/mL (≈ 11.3 µM)
- MIC (Acinetobacter baumannii; strain HDBAB-YK12): 4 µg/mL (≈ 5.66 µM)
- MIC (Acinetobacter baumannii; strain HDBAB-YK16): 16 µg/mL (≈ 22.6 µM)
- MIC (Acinetobacter baumannii; strain HDBAB_OXA_7): 16 µg/mL (≈ 22.6 µM)
- MIC (Escherichia coli): 8 µg/mL (≈ 11.3 µM)
- MIC (Pseudomonas aeruginosa; strain HDBPA-YK9): 16 µg/mL (≈ 22.6 µM)
- MIC (Pseudomonas aeruginosa; strain HDBPA-YK15): 64 µg/mL (≈ 90.6 µM)
- in vitro antibacterial activity (in words) [2]: significantly weaker

- bioavailability (F) (in words) ([1]; compared with some compounds of the present invention): weaker
- MIC ([3]; clinical strain Kp309): 0.25 µg/mL (≈ 0.34 µM)
- MIC ([3]; clinical strain Kp310): ≤ 0.063 µg/mL
- MIC ([3]; clinical strain Kp472): 0.125 µg/mL (≈ 0.17 µM)
- MIC ([3]; clinical strain Kp510): 0.25 µg/mL (≈ 0.34 µM)
- MIC ([4]; clinical strain P7): 2 µg/mL (≈ 2.72 µM)
- MIC ([4]; clinical strain P43): 0.25 µg/mL (≈ 0.34 µM)
- MIC ([4]; clinical strain P155): 2 µg/mL (≈ 2.72 µM)
- MIC ([4]; clinical strain P157): 2 µg/mL (≈ 2.72 µM)
- MIC ([4]; clinical strain P162): 2 µg/mL (≈ 2.72 µM)
- MIC ([5]; clinical strain A0242702): ≤ 0.063 µg/mL
- MIC ([5]; clinical strain A0244122): 2 µg/mL (≈ 2.72 µM)
- MIC ([5]; clinical strain A0248164): 2 µg/mL (≈ 2.72 µM)
- MIC ([5]; clinical strain A0248384): 2 µg/mL (≈ 2.72 µM)
- MIC ([5]; clinical strain A0252247): 0.125 µg/mL (≈ 0.17 µM)
- MIC ([5]; clinical strain A0254384): 0.125 µg/mL (≈ 0.17 µM)
- MIC ([5]; clinical strain A0255830): 16 µg/mL (≈ 21.7 µM)
- MIC ([5]; clinical strain A0257674): 0.125 µg/mL (≈ 0.17 µM)
- MIC ([5]; clinical strain A0258522): 0.125 µg/mL (≈ 0.17 µM)
- MIC ([5]; clinical strain A0262855): 0.125 µg/mL (≈ 0.17 µM)
- MIC ([5]; clinical strain A0270386): 1 µg/mL (≈ 1.36 µM)
- MIC ([5]; clinical strain A0272260): 0.125 µg/mL (≈ 0.17 µM)
- MIC ([5]; clinical strain A0273375): 1 µg/mL (≈ 1.36 µM)
- MIC ([5]; clinical strain A0273826): 16 µg/mL (≈ 21.7 µM)
- MIC ([5]; clinical strain A0274925): 0.25 µg/mL (≈ 0.34 µM)
- MIC ([5]; clinical strain A0283307): 0.125 µg/mL (≈ 0.17 µM)
- MIC ([5]; clinical strain A0284214): 0.125 µg/mL (≈ 0.17 µM)
- MIC ([5]; clinical strain A0284295): 0.125 µg/mL (≈ 0.17 µM)
- MIC ([5]; clinical strain A0284552): 0.5 µg/mL (≈ 0.68 µM)
- MIC ([5]; clinical strain A0285002): 2 µg/mL (≈ 2.72 µM)
- MIC ([5]; clinical strain A0285050): 0.25 µg/mL (≈ 0.34 µM)
- MIC ([5]; clinical strain A0285231): 2 µg/mL (≈ 2.72 µM)
- MIC ([5]; clinical strain A0285299): 0.25 µg/mL (≈ 0.34 µM)
- MIC ([5]; clinical strain A0285369): ≤ 0.063 µg/mL
- MIC ([5]; clinical strain A0285909): 16 µg/mL (≈ 21.7 µM)
- MIC ([5]; clinical strain A0286065): 2 µg/mL (≈ 2.72 µM)
- MIC90 ([5]; clinically isolated Acinetobacter baumannii): 16 µg/mL (≈ 21.7 µM)
- MIC ([6]; clinical strain HDB0140): 2 µg/mL (≈ 2.72 µM)
- MIC ([6]; clinical strain HDB0918): 0.25 µg/mL (≈ 0.34 µM)
- MIC ([6]; clinical strain HDB1120): 0.125 µg/mL (≈ 0.17 µM)
- MIC ([6]; clinical strain HDB5510): 0.25 µg/mL (≈ 0.34 µM)
- MIC ([6]; clinical strain HDB8244): 0.25 µg/mL (≈ 0.34 µM)
- MIC ([7]; strain HDBAB-YK12, in combination with 4 μg/mL Relebactam): 8 µg/mL
- MIC ([7]; strain HDBAB-YK16, in combination with 4 μg/mL Relebactam): 16 µg/mL
- MIC ([7]; strain HDBAB_OXA_7, in combination with 4 μg/mL Relebactam): 16 µg/mL
Compound: CC1(C)[C@H](NC(=O)/C(=N\O[C@@H](COc2ccc(-c3cn(CCCN)[n+](CC4CNC4)c3)cc2)C(=O)O)c2csc(N)n2)C(=O)N1OS(=O)(=O)[O-] [Compound C, reference compound]
- in vitro antibacterial activity (in words) [2]: weaker
